What all share (type): binding, mASH1L
One test addresses T1, ASH1L PHD M2588A (Mus musculus, UniProt Q99MY8, M2588A).
T1 construct: The mASH1L PHD domain (residue 2573–2624); MBP (cleaved yes); made in house; host or cells: Escherichia coli BL21 (DE3)
T1 sequence (Q99MY8 2573-2624 M2588A): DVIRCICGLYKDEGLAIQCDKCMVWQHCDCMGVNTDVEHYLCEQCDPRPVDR
Kind of test: ITC, ASH1L PHD mutant M2588A. The settings on record: 1.5 mM H3 (1–15) peptide, 25°C, pH 7.2, 1×PBS, 100-μM ZnCl2. The source says: (§1) The mASH1L PHD domain (residue 2573–2624) was subcloned into a modified pMAL-c5X expression vector (New England Biolabs, Ipswich, MA, US), which contains an MBP tag and a TEV cleavage site. The site-directed mutagenesis of D2573A, I2575A, D2584E, E2585A, M2588A, Q2590E, and W2597A in the PHD domain was generated using the PfuTurbo DNA polymerase (Agilent Technologies) and Dpn I restriction enzyme (New England Biolabs). After the MBP tag was cut by TEV, these proteins were used in ITC and NMR experiments. The His-tagged PHD domain was subcloned into a pGEX-4T1 expression vector. The base vector has a GST tag and was engineered to include a TEV cleavage site before a 5′ 6×His sequence. After the GST tag was cut, this protein was used for the peptide array assay. The His-tagged Bromo-PHD tandem domain (residue 2425–2627) of mASH1L was subcloned into a pNIC-Bsa4 expression vector, which contains a His tag. […]
(§2) The bacteria were grown in Luria Broth (LB) media, supplemented with 100-μM ZnCl2 (all PHD constructs). […] The size and purity of the purified protein were monitored by SDS-PAGE. The PHD protein was concentrated with a filter tube (Millipore, Co. Cork, Ireland) and measured by UV absorbance at 280 nm. […]
A general note: In ITC the heat of successive injections is recorded.

Another test addresses T2, ASH1L PHD W2597A (Mus musculus, UniProt Q99MY8, W2597A).
T2 construct: The mASH1L PHD domain (residue 2573–2624); MBP (cleaved yes); made in house; host or cells: Escherichia coli BL21 (DE3)
T2 sequence (Q99MY8 2573-2624 W2597A): T1 sequence (Q99MY8 2573-2624 M2588A) with A16M, W25A
In words: ITC, ASH1L PHD mutant W2597A. As to conditions: 1.5 mM H3 (1–15) peptide, 25°C, pH 7.2, 1×PBS, 100-μM ZnCl2.
Text: as §1, §2

The target in a further test is T3, ASH1L PHD Q2590E (Mus musculus, UniProt Q99MY8, Q2590E).
T3 construct: The mASH1L PHD domain (residue 2573–2624); MBP (cleaved yes); made in house; host or cells: Escherichia coli BL21 (DE3)
T3 sequence (Q99MY8 2573-2624 Q2590E): T1 sequence (Q99MY8 2573-2624 M2588A) with A16M, Q18E
In words: ITC, ASH1L PHD mutant Q2590E. The settings on record: 1.5 mM H3 (1–15) peptide, 25°C, pH 7.2, 1×PBS, 100-μM ZnCl2.
Text: as §1, §2

For test [1], the target named is T4, ASH1L PHD finger (Mus musculus, UniProt Q99MY8).
T4 construct: The mASH1L PHD domain (residue 2573–2624); MBP (cleaved yes); made in house; host or cells: Escherichia coli BL21 (DE3)
In words: ITC, ASH1L PHD finger with H3 peptides. The settings on record: 1×PBS, 100-μM ZnCl2, pH 7.2; for Kd: MicroCal iTC200, 25°C, 100 µM protein titrated with 3 mM peptide, H3 (1–15) peptides, H3 (2–16) K9me2, H3 (29–43) K36me2.
Method: The bacteria were grown in Luria Broth (LB) media, supplemented with 100-μM ZnCl2 (all PHD constructs). All PHD domains were expressed in Escherichia coli BL21 (DE3) cells and induced overnight with 0.5-mM isopropyl-β-D-1-thiogalactopyranoside (IPTG) at 22°C. In addition, the cells were harvested by centrifugation at 4,000 g. The harvested cells with MBP-tagged PHD were resuspended in buffer containing 25-mM Tris, pH 7.2, 1-M NaCl, 20-mM β-mercaptoethanol, 100-μM ZnCl2, and the Complete EDTA-free Protease Inhibitor (Roche, Mannheim, Germany). Following lysis in a microfluidizer (MFIC), cell debris was removed by centrifugation at 12,000 g for 1 h and the supernatant was loaded on a 5-ml MBPTrap HP column (GE Healthcare). The binding protein was eluted with buffer containing 25-mM Tris, pH 7.2, 500-mM NaCl, 20-mM β-mercaptoethanol, 20-mM maltose, and 100-μM ZnCl2. After TEV cleavage, the PHD domain was supplemented with 20-mM DTT and further purified using a Superdex 75 column (GE Healthcare, Uppsala, Sweden) in a final buffer containing 1×PBS, pH 7.2, 100- μM ZnCl2. […] The PHD protein was concentrated with a filter tube (Millipore, Co. Cork, Ireland) and measured by UV absorbance at 280 nm.
ITC assays were carried out on the MicroCal iTC200 System (Malvern) at 25°C while stirring at 750 rpm in the ITC buffer of pH 7.2, consisting of 1×PBS, 100-μM ZnCl2. […] The PHD or tandem Bromo-PHD protein sample of 100 µM was placed in the cell and titrated with 3 mM of a different peptide solution in the ITC buffer using a set of 31 injections of 1.2 μl, following a single initial injection of 0.2 μl. In the ITC measurements of PHD mutant samples, the H3 (1–15) peptides were diluted to the final concentrations of 1.5 mM, titrated with a single initial injection of 0.4 μl and followed with a set of 19 injections of 2 μl. Cumulative enthalpy exchange plots were derived from the raw thermal changes, using one set of a site-fitting model.

In test [2] the target is T4, ASH1L PHD finger. In words: NMR titration, KD estimation. The settings on record: 100 μM PHD, peptide 25-2,000 μM, 298 K, 1×PBS, pH 7.2, 100-μM ZnCl2; single-site model; mean ± SEM; H3 (1–15) peptides.
Text: as §1, with “sequence.” for “sequence. After the GST tag was cut, this protein was used for the peptide array assay. The His-tagged Bromo-PHD tandem domain (residue 2425–2627) of mASH1L was subcloned into a pNIC-Bsa4 expression vector, which contains a His tag.”
(§3) The bacteria were grown in Luria Broth (LB) media, supplemented with 100-μM ZnCl2 (all PHD constructs). […] The size and purity of the purified protein were monitored by SDS-PAGE. The PHD protein was concentrated with a filter tube (Millipore, Co. Cork, Ireland) and measured by UV absorbance at 280 nm.
(§4) The ^1H,^15N HSQC spectra of the ^15N-labeled PHD finger were collected at 298 K on a Bruker 800-MHz NMR spectrometer equipped with the z-gradient triple-resonance cryoprobe. The binding was analyzed through monitoring chemical shift perturbations observed in the two-dimensional ^1H,^15N HSQC spectra of PHD finger upon the addition of H3 (aa 1-15) peptides (H3K4me, H3K4me2, H3K4me3). […]

Test [3] addresses T4, ASH1L PHD finger. Kind of test: 1H,15N HSQC chemical shift perturbation. The settings on record: protein-to-peptide molar ratio 1:5; 298 K, 800 MHz, 1×PBS, pH 7.2, 100-μM ZnCl2.
Text: as §1, with “sequence.” for “sequence. After the GST tag was cut, this protein was used for the peptide array assay. The His-tagged Bromo-PHD tandem domain (residue 2425–2627) of mASH1L was subcloned into a pNIC-Bsa4 expression vector, which contains a His tag.”
as §3, §4

Residue numbers refer to the chain shown, from its start.

What is called Kd is a measure of binding affinity in units of concentration. Turning to `C[C@H](N)C(=O)N[C@@H](CCCNC(=N)N)C(=O)N[C@H](C(=O)N[C@@H](CCCC[N+](C)(C)C)C(=O)N[C@@H](CCC(N)=O)C(=O)N[C@H](C(=O)N[C@@H](C)C(=O)N[C@@H](CCCNC(=N)N)C(=O)N[C@@H](CCCCN)C(=O)N[C@@H](CO)C(=O)N[C@H](C(=O)NCC(=O)NCC(=O)N[C@@H](CCCCN)C(=O)N[C@@H](C)C(=O)O)[C@@H](C)O)[C@@H](C)O)[C@@H](C)O` [H3K4me3], the Kd on ASH1L PHD M2588A is above 200 µM; at ASH1L PHD W2597A it was above 200 µM; on ASH1L PHD Q2590E, 33 ± 8 µM; on ASH1L PHD finger [1], 64 ± 4 µM; on ASH1L PHD finger [2], 106 ± 6 µM.

For the compound `C[C@H](NC(=O)[C@@H](NC(=O)[C@H](CCC(N)=O)NC(=O)[C@H](CCCCN)NC(=O)[C@@H](NC(=O)[C@@H](N)CCCNC(=N)N)[C@@H](C)O)[C@@H](C)O)C(=O)N[C@@H](CCCNC(=N)N)C(=O)N[C@@H](CCCCN(C)C)C(=O)N[C@@H](CO)C(=O)N[C@H](C(=O)NCC(=O)NCC(=O)N[C@@H](CCCCN)C(=O)N[C@@H](C)C(=O)N1CCC[C@H]1C(=O)O)[C@@H](C)O` [H3K9me2], the “HSQC chemical shift perturbation” value on ASH1L PHD finger [3] was “binds with methylated H3K4 peptides but not H3K4me0, H3K9me2, or H3K36me2 peptides”. Also, the “binding by ITC, in words” value on ASH1L PHD finger [1] (25°C) is recorded as “weak binding affinity”. For the same compound, the Kd on ASH1L PHD finger [1] was above 500 µM.

These data come from PMC9399681, “Structural insight into ASH1L PHD finger recognizing methylated histone H3K4 and promoting cell growth in prostate cancer” (Frontiers in Oncology, 2022).
